Data as given in US11033604B2, “Reagents and methods for treating bacterial infection” (priority 2018, dated 2021).
Positions of bridges follow the written chain, without caps; N, C: chain ends. Non-standard residues stand in square brackets, D forms with d. No end group written: not given here.

Legend:
S. mutans UA159 biofilms = assay: ThT assay for S. mutans biofilms (plate); format: cell-based, Streptococcus mutans; settings: 28 h, vs control
Source text: (§1) FIG. 16. Synthetic α-sheet peptides as a novel anti-biofilm agent for the dental pathogen, S. mutans. A) ThT fluorescence of S. mutans biofilms decreases upon addition of synthetic α-sheet peptides AP193, AP407, and AP90. […] D) synthetic α-sheet peptides added to S. mutans grown on hydroxyapatite ceramic particles led to significant decreases in ThT fluorescence.
The peptides AP90, AP407, AP193, P411, and P1 were screened for their ability to inhibit amyloid fibril formation using an optimized ThT assay for S. mutans biofilms. Briefly, S. mutans UA159 overnight cultures were diluted in BHI medium with 30 mM sucrose and 1% (v/v) EC Oxyrase(R) to ensure an oxygen-limited environment. Inocula were then mixed with inhibitors in water, or only water for blank conditions. Biofilms were cultivated at 37° C. in 96 well plates. After 28 h, planktonic cells and media were aspirated. Biofilms were rinsed once with PBS and then resuspended in a solution of 22 μM ThT in PBS. Stained biofilm suspensions were transferred to a new microtiter plate and their fluorescence was measured in a plate reader.
Several synthetic peptides caused significant suppression in the amyloid content of S. mutans biofilms, and the effect was specific to those with α-sheet structure. AP193 at 40 μM decreased ThT fluorescence by 33% (p=0.007). […] AP90 caused a 16% decrease in ThT fluorescence at 85 μM (p=0.017).

[1] = test system: P. aeruginosa PAO1 pFap biofilms; assay: In situ ThT assay of Fap amyloid in P. aeruginosa biofilms; format: cell-based; settings: LB medium, 37° C., 48 h
Source text: FIG. 15. Action of synthetic α-sheet peptides in the P. aeruginosa system. […] Error bars indicate standard deviation of the mean of at least three replicates. Significance values are p<0.05: *, p<0.01: **, p<0.001: ***.
The strain used in these experiments is a fap-overexpressing mutant of P. aeruginosa PAO1 WT called PAO1 pFap. The overexpression is generated by cloning the entire fap operon into a host expression vector, which is then transformed into PAO1 WT. […] For in situ assays, overnight cultures from a single colony of freshly transformed PAO1 pFap were used to inoculate 96 well plates in the presence of synthetic α-sheet peptides in LB medium. As a control, biofilms of the deletion strain PAO1 Δfap were grown under the same conditions. Plates were covered and incubated at 37° C. for 48 h. After incubation, planktonic cells and media were gently removed from the biofilms by pipetting. The biofilms were rinsed once with PBS prior to staining with 20 μM ThT. Stained biofilms were resuspended by pipetting and sonication, and the fluorescence of ThT was measured at 448/485 nm in a plate reader.

S. aureus MN8 biofilms = assay: ThT fluorescence assay of amyloid formation in S. aureus MN8 biofilm cultures; format: cell-based, Staphylococcus aureus; settings: for Effect on amyloid fibril formation in S. aureus biofilms (ThT fluorescence, FIG. 1B): MN8 and SH1000 WT strains, particularly MN8; for Effect on amyloid fibril formation in S. aureus biofilms (ThT fluorescence, FIG. 1B) / Reduction of amyloid fibril formation (ThT fluorescence): 24 h, 37° C.; for Reduction of amyloid fibril formation (ThT fluorescence): S. aureus MN8 biofilm, peptide 80 μM unless otherwise noted, vs peptide-free control
Method: We developed a novel protocol to identify amyloid fibril formation during biofilm development in two S. aureus strains—SH1000 WT, a rsbU^+ laboratory strain^27, and MN8, a clinical strain isolated from the human urogenital tract (Table 1). After 24 hours of batch growth in microtiter plates, biofilms were washed and incubated with Thioflavin T (ThT), and the resulting fluorescence signals served as a proxy for the extent of PSM fibril formation in the EM (FIG. 1A). Next, we utilized this assay to test α-sheet amyloid inhibitor designs and control peptides (sequences provided in Table 2) in batch biofilm cultures. The first inhibitor used is AP90 (Alternating Peptide #90, referred to as α1 previously^25,26). […] The AP401 and AP407 designs display similar spectral features by CD, except that AP401 has a positive signal in the random coil region (FIG. 7). AP401 has the same sequence as AP90 but with reversed chirality in the strands and turn, thus the D-amino acids give rise to an approximate mirror image CD spectrum relative to AP90. AP407 is a variant of AP90 with a disulfide bond. An unstructured random coil peptide (RC) and a β-hairpin (β) are used as structural controls.
Designed and control peptides were added to the growth medium prior to inoculation, and biofilms were allowed to grow for 24 hours at 37° C. Planktonic cells were removed and the remaining biofilms were assayed for amyloid content using ThT. […] The disulfide-linked peptide design, AP407, reduced the amyloid fibril formation by 46% and 56% in the MN8 and SH1000 WT strains, respectively. In contrast, the random coil and β-sheet control peptides were ineffective.
Overnight cultures of S. aureus (see Table 1 for a list of strains used in this study) were spun down and re-suspended in fresh Luria-Bertani (LB) media to an optical density of 0.1 (600 nm). These cultures were then mixed with reconstituted peptide (or water, in the case of controls) and aliquoted in quadruplicate into wells of a clear 48-well plate (Corning, TC-treated polystyrene). The final concentration of peptide in each well was 80 μM, unless otherwise noted. Plates were covered and biofilms were grown at 37° C. for 24 hours with gentle rocking. At this time, medium and planktonic cells were removed from wells using a vacuum and the remaining adherent biofilms were rinsed once with PBS (BupH™, Thermo Scientific). Thioflavin T (ThT), an established fluorescent label for amyloid fibrils^40, was then added to each well at a concentration of 22 μM and biofilms were incubated statically for 4 hours at room temperature. The solution was then removed from the wells and PBS was added with vigorous pipetting to detach biofilms from the plate surface. Plates were shaken at high speed for 1 minute on a plate shaker to detach any remaining biofilm material and homogenize the samples. The detached biofilm suspensions were transferred to a 96-well black-walled plate (Corning, TC-treated polystyrene) and ThT fluorescence was read at 438/495 nm on a Perkin-Elmer Enspire™ plate reader. Fluorescence measurements were corrected by subtracting the background intensity of identical samples without ThT. For calculation of live:dead cell ratios, biofilm suspensions were prepared as described above and cells were stained with a 1:1 mixture of Syto9 and propidium iodide (LIVE/DEAD BacLight™ Bacterial Viability Kit, Thermo Scientific). After 15 minutes of incubation at room temperature, fluorescence ratios of the two dyes were determined using a Perkin-Elmer Enspire™ plate reader.

[2] = test system: S. mutans biofilms on hydroxyapatite; assay: ThT assay of S. mutans biofilms grown on ceramic-hydroxyapatite particles; format: cell-based, Streptococcus mutans; settings: 24 h
Method: as §1
To assess peptide inhibition of amyloid fibrils in S. mutans adhered to tooth-like surfaces, biofilms were grown on ceramic-hydroxyapatite particles. Hydroxyapatite is the primary mineral present in the structure of a tooth, so this assay is a more physiologically relevant model of S. mutans accumulation. ThT fluorescence of adhered biofilms was determined after 24 h of growth. Synthetic α-sheet peptides were added to medium and hydroxyapatite ceramic particles prior to cell growth. […] Both AP193 monomer and dimer caused significant decreases in ThT fluorescence (23% and 63%, respectively; FIG. 16D).

PSMα1 = test system: PSMα1
Source text: FIG. 6. […] Error bars represent the standard error of the mean.

Row | Substance | Decrease in ThT fluorescence (S. mutans UA159 biofilms; 85 μM) | Amyloid formation in biofilms (ThT) [1] | Effect on amyloid fibril formation in S. aureus biofilms (ThT fluorescence, FIG. 1B) (S. aureus MN8 biofilms) | Reduction of amyloid fibril formation (ThT fluorescence) (S. aureus MN8 biofilms) | Decrease in ThT fluorescence ([2]; 100 μM) | Change of binding affinity as PSMα1 converted to β-sheet (PSMα1; PSMα1 at 146 h vs end of lag phase) | Fibril formation with increasing peptide concentration (FIG. 1C) (S. aureus MN8 biofilms; S. aureus MN8 biofilms, increasing concentrations in culture medium) | Decrease in ThT fluorescence (S. mutans UA159 biofilms; 40 μM) | Decrease in ThT fluorescence ([2]; concentration not given) | Binding of PSMα1 to peptide-functionalized beads (PSMα1; PSMα1 pre-incubated 0, 24, 48 h)
1 | RGEmNlCwMNEYSGWcMnLkMGR (RGE[dM]N[dL]C[dW]MNEYSGW[dC]M[dN]L[dK]MGR; disulfide 7-16 (inferred)) [AP407, variant of AP90 with a disulfide bond] | 42% | significantly inhibit amyloid formation | significant reduction in amyloid fibril formation | 46% | – | – | – | – | – | –
2 | RGEmNlSwMNEYSGWtMnLkMGR (RGEMNLSWMNEYSGWTMNLKMGR; not fully specified (residues 4, 6, 8, 16, 18, 20); printed as RGEmNlSwMNEYSGWtMnLkMGR) [AP90] | 16% | significantly inhibit amyloid formation | significant reduction in amyloid fibril formation | 47% | 20% | dropped by two orders of magnitude | decreased in a dose-dependent manner | – | – | –
3 | RGEmNyFwMNEYYGWtMnCkMGR (RGE[dM]N[dY]F[dW]MNEYYGW[dT]M[dN]C[dK]MGR) [AP193] | – | significantly inhibit amyloid formation | – | – | – | – | – | 33% | 23% | preferentially bound α-sheet rich PSMα1 (48 h) over earlier time points
